Measurements taken from EP4652843A1, “BIOPESTICIDE COMPOSITION, PROCEDURE OF OBTAIN THEREOF, AND METHOD FOR CONTROLLING AND TREATING BROAD SPECTRUM OF PESTS IN PLANTS” (Kimitec Biogroup S.L, priority 2024, dated 2025).
Where “and” joins values, the source holds several entries; their conditions need not be identical. Identical values can stand only once. Marks after values point to notes of the source that are not given here.

Experiments:
[1] = test system: lepidoptera larvae (Grapholita molesta); assay: Contact mortality (Leaf Disc Method), Grapholita molesta larvae; type: in vivo; conditions: dose 1.5 g/L; 24H after application; Abbott's corrected; mean of 4 repetitions
Protocol: (§1) All trials were carried out on whole alive target.
(§2) Mortality percentage was calculated in treatment and control groups.

[2] = test system: lepidoptera larvae (Grapholita molesta); assay: Antifeedant effects: settling inhibition, Grapholita molesta larvae; type: in vivo; conditions: dose 1.5 g/L; 24H after application
Protocol: The concept of antifeedant as a substance that acts on insect behaviour involves feeding reduction (FR) and settling inhibition (SI). In some cases, settling inhibition is considered as indirect repellent effect. […] Feeding reduction index (%FR) or settling inhibition index (%SI) was calculated according to the following formula: % FR or SI = (1−((T)/(C)))∗100 [formula] where: T= Settling of treated plants; C= Setting of control plants. Table 3. In vitro efficacy against lepidoptera larvae (Grapholita molesta)

[3] = test system: lepidoptera adults (Grapholita molesta); assay: Contact mortality (Leaf Disc Method), Grapholita molesta adults; type: in vivo; conditions: dose 1.5 g/L; 24H after application; Abbott's corrected
Protocol: as §1, §2

[4] = test system: lepidoptera adults (Cydia pomonella); assay: Contact mortality (Leaf Disc Method), Cydia pomonella adults; type: in vivo; conditions: dose 1.5 g/L; 24H after application; Abbott's corrected
Protocol: as §1, §2

[5] = test system: lepidoptera larvae (Tuta absoluta); assay: Contact mortality (Leaf Disc Method), Tuta absoluta larvae; type: in vivo; conditions: dose 0.5 kg/ha; 24H after application; Abbott's corrected; mean of 3 repetitions
Protocol: as §1, §2

[6] = test system: lepidoptera larvae (Tuta absoluta); assay: Antifeedant effects: feeding reduction (choice assays), Tuta absoluta larvae; type: in vivo; conditions: dose 0.5 kg/ha, surface covered by mines, 24H after application
Tuta absoluta [7] = assay: Field trial against Tuta absoluta in Solanum lycopersicum; type: in vivo; conditions: 1,5 gr/L, % efficacy (Henderson & Tilton) on damaged leaflets, one value per plot (1-3)
Protocol: The biopesticide composition was tested in field trials against Tuta absoluta in Solanum lycopersicum to validate efficacy, parametrised by % efficacy (Henderson & Tilton) on damaged leaflets (50 random leaflets/Plot). 3 plots were treated, each plot has 10m^2. The plants were treated with biopesticide composition and positive control; commercial products based on emamectin for recommend doses in the label in 3 applications at interval of 7 days. Table 11. % Efficacy against Tuta absoluta in field trials

Grapholita molesta = assay: Field trial against Grapholita molesta in Prunus persica; type: in vivo; conditions: 0,2cc/L, % efficacy (abbott) on fruit damage incidence, one value per plot (1-3)
Protocol: (§3) The biopesticide composition (table 2) was tested in field trials against Grapholita molesta in Prunus persica […] to validate efficacy, parametrised by % efficacy (abbott) on fruit damage incidence. 3 plots were treated, each plot has 4-6 trees with a sample size of 100-300 fruits/ plot. The trees were treated with biopesticide composition and positive control; commercial products based on chlorantraniliprole for recommend doses in the label in 2 applications at interval of 10 days. Table 9. % Efficacy against Grapholita molesta in field trials.

Cydia pomonella = assay: Field trial against Cydia pomonella in Pyrus communis and Malus domestica; type: in vivo; conditions: 0,2cc/L, one value per plot (1-3)
Protocol: as §3
The same test was repeated in Pyrus communis and Malus domestica to validate efficacy against Cydia pomonella. Table 10. % Efficacy against Cydia pomonella in field trials

Bemisia tabaci = assay: Contact mortality (Leaf Disc Method), solvent comparison, Bemisia tabaci; conditions: Group A: individual solvents, diluted at 0.3% (3cc/L) in water without formulation, Abbott's corrected
Protocol: (§4) The objective of this bioassay is to evaluate the effect of test items on the mortality of insect (Fam Tortricidae and Fam Gelechiidae) and other side pests as target in a short/medium-term (0-24 hours) by topical application. All trials were carried out on whole alive target. Four independent replicates of the whole setup were performed for each target as follow: (Figure 12) first of all, 10g/L agar-agar was prepared (1) and deposited in petri dish according to the target (2), after adding cut leaf disc around 4 cm diameter from healthy bean plants (3), fixing the plant material on the semi solid agar in the petri dish (4). Insect adults (from 3 to 15 according to the target) are setting on surface of leaf disc (5). Biopesticide composition was sprayed 0.1-02 ml per experimental unit (6), a total of 10 replicates for each treatment (biopesticide composition and positive control; commercial products based on anthranilic diamide and emamectin to recommend doses in the label) were used in each experiment and incubated and evaluated after 24 hours (7).
(§5) Insects and mites were considered dead if no movement was apparent after probing with the tip of a fine brush under stereoscopic magnifying glass. Mortality percentage was calculated in treatment and control groups. If the mortality in negative control is above 20% the test was discarded.
(§6) Means of %M were compared using a one-way analysis of variance (ANOVA, p<0.05) and LSD-test as a post hoc test to verify significant differences between single treatments using Statgraphics Centurion XVII software. When nonnormality in the data was detected, an additional Kruskal-Wallis test was conducted, and Box-and-Whisker Plot (Median Notch) was presented.
(§7) The different compositions were tested by trials that were carried out on different relevant insect pests and acari including: Tuta absoluta, Bemisia tabaci, Myzus persicae, Frankliniella occidentalis and Tetranychus urticae. The bioassay type used was contact mortality (Leaf Disc Method) described in the example 4.
(§8) The main treatments included in the comparison of efficacy are: Group A: Individual solvents: Benzyl alcohol, ethanol, isopropanol, and water were applied directly (purity as in the label) diluted at 0.3% (3cc/L) in water without formulation. Group B: Vegetable matrix extracts were extracted with different solvents such as benzyl alcohol, ethanol, isopropanol, and water in a blend of inert ingredients as follows: […]

Myzus persicae = assay: Contact mortality (Leaf Disc Method), solvent comparison, Myzus persicae; conditions: Group A: individual solvents, diluted at 0.3% (3cc/L) in water without formulation, Abbott's corrected
Protocol: as §4, §5, §6, §7, §8

[8] = test system: Frankliniella occidentalis; assay: Contact mortality (Leaf Disc Method), solvent comparison, Frankliniella occidentalis; conditions: Group A: individual solvents, diluted at 0.3% (3cc/L) in water without formulation, Abbott's corrected
Protocol: as §4, §5, §6, §7, §8

Tuta absoluta [9] = assay: Contact mortality (Leaf Disc Method), solvent comparison, Tuta absoluta; conditions: Group A: individual solvents, diluted at 0.3% (3cc/L) in water without formulation, Abbott's corrected
Protocol: as §4, §5, §6, §7, §8

Tetranychus urticae = assay: Contact mortality (Leaf Disc Method), solvent comparison, Tetranychus urticae; conditions: Group A: individual solvents, diluted at 0.3% (3cc/L) in water without formulation, Abbott's corrected
Protocol: as §4, §5, §6, §7, §8

[10] = cited from earlier work

For Emamectin, the “Contact mortality (%M)” value [1] was 100.0 ± 0.0 ^(a) %, the “Settling inhibition (%SI)” value [2] was 36.0 ± 5.8% and the “Contact mortality (%M)” value [3] was 88.9 ± 2.0 ^(a) %. For the same compound, the “Contact mortality (%M)” value [4] was 94.5 ± 1.9 ^(a) %, the “Contact mortality in-leaf (%M)” value [5] was 80.3 ± 8.7 ^(a) % and the “Contact mortality out-leaf (%M)” value [5] was 65.3 ± 3.8 ^(ab) %. For the same compound, the “Feeding reduction (%FR)” value [6] was 59.1 ± 0.8 %, the “% Efficacy against Tuta absoluta in field trials” value (“% Efficacy against Tuta absoluta” below) (Tuta absoluta [7]; 7 days after 1st application) was 62% and 43% and 71% and the “% Efficacy against Tuta absoluta” value (Tuta absoluta [7]; 7 days after 2nd application) was 53% and 58%. For the same compound, the “% Efficacy against Tuta absoluta” value (Tuta absoluta [7]; 7 days after 3rd application) was 67% and 61% and 55%.
For CNC(=O)c1cc(Cl)cc(C)c1NC(=O)c1cc(Br)nn1-c1ncccc1Cl [Chlorantraniliprole], the “% Efficacy against Grapholita molesta in field trials” value (Grapholita molesta; 14 days after the last application) was 58% and 63% and 42%, the “% Efficacy against Grapholita molesta in field trials” value (Grapholita molesta; 21 days after the last application) was 62% and 51% and 61% and the “% Efficacy against Cydia pomonella in field trials” value (Cydia pomonella; 10 days after the last application) was 59% and 62% and 75%. The “% Efficacy against Cydia pomonella in field trials” value (Cydia pomonella; 20 days after the last application) was 68% and 62% and 73%.
In the case of CCO [Ethanol (EtOH), Ethanol], the “Contact mortality (%M) Bemisia tabaci” value (Bemisia tabaci) was 23.5 ± 8.4 ^b %, the “Contact mortality (%M) Myzus persicae” value (Myzus persicae) was 16.7 ± 9.1 ^a % and the “Contact mortality (%M) Frankliniella occidentalis” value [8] was 0.0 ± 0.0 ^b %. For the same compound, the “Contact mortality (%M) Tuta absoluta” value (Tuta absoluta [9]) was 0.0 ± 0.0 ^c % and the “Contact mortality (%M) Tetranychus urticae” value (Tetranychus urticae) was 0.0 ± 0.0 ^b %.
In the case of OCc1ccccc1 [Benzyl alcohol (BnOH), Benzyl alcohol], the “Contact mortality (%M) Bemisia tabaci” value (Bemisia tabaci) was 49.8 ± 6.2 ^a %, the “Contact mortality (%M) Myzus persicae” value (Myzus persicae) was 19.8 ± 6.2 ^a % and the “Contact mortality (%M) Frankliniella occidentalis” value [8] was 12.5 ± 7.8 ^a %. The “Contact mortality (%M) Tuta absoluta” value (Tuta absoluta [9]) was 29.6 ± 5.7 ^a %, the “Contact mortality (%M) Tetranychus urticae” value (Tetranychus urticae) was 33.4 ± 4.1 ^a % and the solubility in water [10] was 4 g/100 mL.
With O [Water] the “Contact mortality (%M) Bemisia tabaci” value (Bemisia tabaci; 1440 min) was 0.0 ± 0.0 ^c %, the “Contact mortality (%M) Myzus persicae” value (Myzus persicae; 1440 min) was 0.0 ± 0.0 ^b % and the “Contact mortality (%M) Frankliniella occidentalis” value ([8]; 1440 min) was 0.0 ± 0.0 ^b %. For the same compound, the “Contact mortality (%M) Tuta absoluta” value (Tuta absoluta [9]; 1440 min) was 0.0 ± 0.0 ^c % and the “Contact mortality (%M) Tetranychus urticae” value (Tetranychus urticae; 1440 min) was 0.0 ± 0.0 ^b %.
With CC(C)O [Isopropanol (IPN), Isopropanol] the “Contact mortality (%M) Bemisia tabaci” value (Bemisia tabaci) was 0.0 ± 0.0 ^c %, the “Contact mortality (%M) Myzus persicae” value (Myzus persicae) was 0.0 ± 0.0 ^b % and the “Contact mortality (%M) Frankliniella occidentalis” value [8] was 0.0 ± 0.0 ^b %. For the same compound, the “Contact mortality (%M) Tuta absoluta” value (Tuta absoluta [9]) was 11.4 ± 7.2 ^b % and the “Contact mortality (%M) Tetranychus urticae” value (Tetranychus urticae) was 0.0 ± 0.0 ^b %.
